Reference: PMC8767159, “Multiparameter Optimization of Trypanocidal Cruzain Inhibitors With In Vivo Activity and Favorable Pharmacokinetics” (Frontiers in Pharmacology, 2022)
Read-outs that look alike come from different tables or passages of the source.

Legend:
[1] = In vivo pharmacokinetics in male CD1 mice; set-up: species or system mouse; details: for CLpu: plasma clearance corrected for the fraction unbound; for bioavailability / C0 / AUC / half-life / Vd / Cmax / Tmax: plasma; for bioavailability: oral bioavailability; for clearance: plasma clearance, read-out: CLp (L/h/kg) IV (converted)
Procedure: The in vivo pharmacokinetic profiles of the compounds were determined using male CD1 mice weighing […] ([Davies and Morris, 1993]; [Liu and Jia, 2007]). The compounds were administered in a single dose orally (0.5 mg/kg) and intravenously (0.5 mg/kg). Stock solutions of the compounds in DMSO were diluted in Tween 80, PEG-400, and D5W (5% dextrose in water) at a ratio of 2:5:20:73 (v/v). The injection volume was 10 ml/kg. The remaining plasma concentration was monitored over time by LC-MS/MS by collecting blood samples (40 μl) at 10, 25, and 50 min and 1, 3, 6, 9, 12, and 24 h after administration of the compound.
For the biotransformation experiments and analysis of metabolites in microsomes, an Ultra-High-Pressure Liquid Chromatography instrument (UHPLC, Thermo Accela, Waltham, MA) ([Spaggiari et al., 2014]) connected to an automatic sample injector and a 1250 series pump was used. The UHPLC system was connected to a Thermo Fisher (Waltham, MA) LTQ Orbitrap mass spectrometer. For all other analyses, an AB Sciex Triple Quad 5500 coupled to a UHPLC equipped with a UV 1290 diode detector (Agilent Technologies, Santa Clara, CA) and a CTC PAL self-collecting system (LEAP Technologies, Carrboro, NC) was used. Q1 MS positive ion mode (300–500 Da) was used to detect the ions of the parent compounds. The UV detector was operated in spectral mode (250–280 nm). A Hypersil Gold C18 (2.1 mm × 100 mm, 1.9 µm, Thermo Fisher) HPLC column was used. The mobile phases were solvent A (0.1% formic acid in water) and solvent B (0.1% formic acid in ACN). The flow was adjusted to 0.55 ml/min, and the injection volume was adjusted to […]. The gradient started with 1% solvent B for 0.4 min, reached 40% (solvent B) in 2.3 min and 95% (solvent B) in 0.67 min, was maintained for 0.5 min, and returned to the initial condition of 1%. This condition was maintained for 1 min before injection of the next sample. The peak area ratio (peak area of the test compounds/peak area of the control compounds) was converted to the percentage of remaining compound, with the 0 min time point ratio set to 100%. T½ and CLint were calculated from the percentage of remaining compound versus the incubation time. From the resulting function, the slope (k) was determined. The equations T1/2 (min) = ln(2)/k and CLint in vitro (μL/min/mg) = k*1000/0.25 were used to determine T½ and CLint.

[2] = Cytotoxicity MTS assay in HFF-1 fibroblasts; type: cell-based; details: human HFF-1 fibroblasts
Procedure: The synthesized compounds were evaluated for their cytotoxicity against HFF-1 cells using the MTS assay (Promega, Madison, WI) ([Barltrop et al., 1991]) as previously described ([Ferreira et al., 2019]). HFF-1 fibroblasts were plated at 2 × 10^3/well in 96-well culture plates in RPMI 1640 without phenol red enriched with 10% FCS and incubated overnight at 37°C and 5% CO2. Next, 7 concentrations (0.1–100 µM) of the compounds were added in 3-fold serial dilutions, each concentration in triplicate, and the plates were incubated for 72 h at 37°C and 5% CO2. Next, 20 µl of MTS was added to each well, and the plates were incubated for an additional 4 h at 37°C and 5% CO2. The absorbance was measured at 490 nm using a spectrophotometer, and the data were transferred to SigmaPlot 10.0 (Systat Software Inc., Erkrath, Germany) to determine the IC50 values. Doxorubicin (Sigma–Aldrich) was used as a positive control, and untreated wells (100% growth) were used as negative controls in all plates. All compounds were tested in two independent assays.

[3] = mouse, 0.5 mg/kg, Table 6, male CD1 mice
[4] = mouse, Table 6, IV 0.5 mg/kg, male CD1 mice
[5] = mouse, Table 6, IV 0.5 mg/kg, male CD1 mice, read-out: AUC (ng*h/ml) IV
[6] = mouse, Table 6, IV 0.5 mg/kg, male CD1 mice, read-out: T1/2 (h) IV (converted)
[7] = mouse, Table 6, IV 0.5 mg/kg, male CD1 mice, read-out: V SS (L/kg) IV
[8] = mouse, Table 6, PO 0.5 mg/kg, male CD1 mice
[9] = mouse, Table 6, PO 0.5 mg/kg, male CD1 mice, read-out: AUC (ng*h/ml) PO
[10] = mouse, Table 6, PO 0.5 mg/kg, male CD1 mice, read-out: T1/2 (h) PO (converted)
[11] = male, CD1, mouse, 0.5 mg/kg, Table S6, IV, mice
[12] = male, CD1, mouse, 0.5 mg/kg, Table S6, IV, mice, read-out: AUC (ng*h/mL) IV
[13] = male, CD1, mouse, 0.5 mg/kg, Table S6, IV, mice, read-out: T1/2(h) IV (converted)
[14] = male, CD1, mouse, 0.5 mg/kg, Table S6, IV, mice, read-out: VSS (L/kg) IV
[15] = male, CD1, mouse, 0.5 mg/kg, Table S6, PO, mice
[16] = male, CD1, mouse, 0.5 mg/kg, Table S6, PO, mice, read-out: AUC (ng*h/mL) PO
[17] = male, CD1, mouse, 0.5 mg/kg, Table S6, PO, mice, read-out: T1/2 (h) PO (converted)
[18] = male, CD1, mouse, 0.5 mg/kg, Table S6, mice

O=C(COc1ccc(Br)cc1)NCCc1nc2ccccc2[nH]1 [Compound 33]
CLpu ([1]; Table 6, IV): 60.6 L/h/kg | bioavailability [1, 3]: 35.2% | C0 [1, 4]: 0.658 µg/mL | AUC [1, 5]: 160 ng·h/mL | half-life [1, 6]: 0.2 h | Vd [1, 7]: 0.6 L/kg | Cmax [1, 8]: 0.0717 µg/mL | Tmax [1, 8]: 18 min | AUC [1, 9]: 56.5 ng·h/mL | half-life [1, 10]: 0.4 h | clearance [1, 4]: 9.5 L/h/kg | IC50 at 72 h [2]: > 100 µM

O=C(COc1ccccc1)NCCc1nc2ccccc2[nH]1 [Compound 1]
CLpu ([1]; Table S6): 17.39 L/h/kg | clearance [1, 11]: 4.01 L/h/kg | C0 [1, 11]: 0.988 µg/mL | AUC [1, 12]: 250 ng·h/mL | half-life [1, 13]: 0.21 h | Vd [1, 14]: 1.02 L/kg | Cmax [1, 15]: 0.021 µg/mL | Tmax [1, 15]: 19.2 min | AUC [1, 16]: 22.5 ng·h/mL | half-life [1, 17]: 0.73 h | bioavailability [1, 18]: 9% | IC50 at 72 h [2]: > 100 µM

O=C(COc1ccccc1[N+](=O)[O-])NCCc1nc2ccccc2[nH]1 [Compound 32]
CLpu ([1]; Table 6, IV): 157.4 L/h/kg | bioavailability [1, 3]: 1.9% | C0 [1, 4]: 0.22 µg/mL | AUC [1, 5]: 53 ng·h/mL | half-life [1, 6]: 0.2 h | Vd [1, 7]: 2.5 L/kg | Tmax [1, 8]: 18 min | AUC [1, 9]: 1 ng·h/mL | clearance [1, 4]: 5.9 L/h/kg | IC50 at 72 h [2]: > 100 µM

O=C(COc1ccccc1)NCCc1nc2ccccc2n1Cc1ccccc1 [Compound 26]
IC50 at 72 h [2]: > 100 µM

C=CCCn1c(CCNC(=O)COc2ccccc2)nc2ccccc21 [Compound 27]
IC50 at 72 h [2]: > 100 µM

Cc1ccccc1OCC(=O)NCCc1nc2ccccc2[nH]1 [Compound 17]
CLpu ([1]; Table 6, IV): 104.3 L/h/kg | bioavailability [1, 3]: 0% | C0 [1, 4]: 0.153 µg/mL | AUC [1, 5]: 83 ng·h/mL | half-life [1, 6]: 0.5 h | Vd [1, 7]: 4.4 L/kg | clearance [1, 4]: 6.3 L/h/kg | IC50 at 72 h [2]: > 100 µM

O=C(CCc1ccccc1Br)NCCc1nc2ccccc2[nH]1 [Compound 36]
CLpu ([1]; Table 6, IV): 231.5 L/h/kg | bioavailability [1, 3]: 0% | C0 [1, 4]: 0.144 µg/mL | AUC [1, 5]: 55 ng·h/mL | half-life [1, 6]: 0.5 h | Vd [1, 7]: 7.2 L/kg | clearance [1, 4]: 9.5 L/h/kg

O=C(COc1ccc(NC(=O)CCCO)cc1)NCCc1nc2ccccc2[nH]1 [Compound 5]
IC50 at 72 h [2]: > 100 µM

N#Cc1ccccc1OCC(=O)NCCc1nc2ccccc2[nH]1 [Compound 31]
CLpu ([1]; Table 6, IV): 29.9 L/h/kg | C0 [1, 4]: 0.232 µg/mL | AUC [1, 5]: 67 ng·h/mL | half-life [1, 6]: 0.2 h | Vd [1, 7]: 1.9 L/kg | Cmax [1, 8]: 0.0128 µg/mL | Tmax [1, 8]: 18 min | clearance [1, 4]: 4.6 L/h/kg

C=CCCn1c(CCNC(=O)COc2ccccc2Cl)nc2ccccc21 [Compound 38]
CLpu ([1]; Table 6, IV): 430.5 L/h/kg | C0 [1, 4]: 0.126 µg/mL | AUC [1, 5]: 82 ng·h/mL | half-life [1, 6]: 0.4 h | Vd [1, 7]: 3.3 L/kg | Cmax [1, 8]: 0.0025 µg/mL | Tmax [1, 8]: 18 min | clearance [1, 4]: 6.2 L/h/kg | IC50 at 72 h [2]: > 100 µM

O=C(COc1cccc([N+](=O)[O-])c1)NCCc1nc2ccccc2[nH]1 [Compound 8]
CLpu ([1]; Table S6): 23.77 L/h/kg | clearance [1, 11]: 3.31 L/h/kg | C0 [1, 11]: 0.925 µg/mL | AUC [1, 12]: 322 ng·h/mL | half-life [1, 13]: 0.21 h | Vd [1, 14]: 1.04 L/kg | Cmax [1, 15]: 0.061 µg/mL | Tmax [1, 15]: 18.6 min | AUC [1, 16]: 44.6 ng·h/mL | half-life [1, 17]: 0.42 h | bioavailability [1, 18]: 14% | IC50 at 72 h [2]: > 100 µM

O=C(COc1ccc2ccccc2c1)NCCc1nc2ccccc2[nH]1 [Compound 35]
CLpu ([1]; Table 6, IV): 334.6 L/h/kg | bioavailability [1, 3]: 2% | C0 [1, 4]: 0.228 µg/mL | AUC [1, 5]: 86 ng·h/mL | half-life [1, 6]: 0.2 h | Vd [1, 7]: 2 L/kg | Cmax [1, 8]: 0.0037 µg/mL | Tmax [1, 8]: 18 min | AUC [1, 9]: 1.7 ng·h/mL | half-life [1, 10]: 0.2 h | clearance [1, 4]: 5.8 L/h/kg | IC50 at 72 h [2]: > 100 µM

O=C(COc1ccccc1)NCCc1nc2ccccc2n1CCOc1ccccc1 [Compound 20]
IC50 at 72 h [2]: > 30 µM

CC(=O)Nc1ccc(OCC(=O)NCCc2nc3ccccc3[nH]2)cc1 [Compound 2]
CLpu ([1]; Table S6): 4.16 L/h/kg | clearance [1, 11]: 2.03 L/h/kg | C0 [1, 11]: 1.04 µg/mL | AUC [1, 12]: 506 ng·h/mL | half-life [1, 13]: 0.63 h | Vd [1, 14]: 1.03 L/kg | Cmax [1, 15]: 0.054 µg/mL | Tmax [1, 15]: 49.8 min | AUC [1, 16]: 125 ng·h/mL | half-life [1, 17]: 1.21 h | bioavailability [1, 18]: 25% | IC50 at 72 h [2]: > 100 µM

O=C(COc1ccccc1)NCCc1nc2ccccc2n1CCCOc1ccccc1 [Compound 24]
IC50 at 72 h [2]: > 30 µM

Cc1ccccc1OCC(=O)NCCc1nc2ccccc2o1 [Compound 37]
CLpu ([1]; Table 6, IV): 187.1 L/h/kg | C0 [1, 4]: 0.169 µg/mL | AUC [1, 5]: 53 ng·h/mL | half-life [1, 6]: 0.2 h | Vd [1, 7]: 2.4 L/kg | Cmax [1, 8]: 0.0146 µg/mL | Tmax [1, 8]: 18 min | clearance [1, 4]: 9.5 L/h/kg | IC50 at 72 h [2]: > 100 µM
